Patent US20250375416A1, “SERINE PROTEASE INHIBITORY EFFECTS OF HEALTH SUPPLEMENTS IN HUMAN CANCEROUS CELL LINES” (priority 2022, published 2025)
Each block holds one molecule with its values, some of them ahead of it.

Key:
Trypsin = target: T1, Trypsin (Sus scrofa, UniProt P00761); assay: Trypsin inhibition by health supplements in confluent A549 cells (cell detachment, crystal violet staining, microscopy); assay type: cell-based; settings: for concentration at end point dilution of trypsin inhibition: FIG. 11, 0.125% trypsin, serial dilutions in 24 well plate; for concentration at end point of trypsin inhibitory effects: FIG. 13, cell morphology under microscope vs cell and trypsin control
T1 construct: purchased Gibco Lot no-2455123
T1 sequence (P00761 9-231): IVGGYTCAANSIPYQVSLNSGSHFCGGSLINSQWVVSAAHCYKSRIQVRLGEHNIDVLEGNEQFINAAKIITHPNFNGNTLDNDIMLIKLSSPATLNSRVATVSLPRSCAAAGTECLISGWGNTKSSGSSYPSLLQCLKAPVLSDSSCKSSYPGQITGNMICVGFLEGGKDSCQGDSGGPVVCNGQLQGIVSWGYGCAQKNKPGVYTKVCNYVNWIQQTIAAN
Experimental: In a preferred embodiment, supplements are diluted two to five-fold dilutions (where ever necessary) in PBS (pH 7.4) either as single component and/or various combinations and tested in cell lines grown in either 6, 12, 24 and/or 48 well plates. Cell (CC) and trypsin control (TC) were kept as protease negative and positive indicators in every experiment. Trypsin-EDTA (Gibco Lot no-2455123, Canada) was added into all wells (0.125%) expect cell control wells.
(§1) Fluids from the plate was discarded and washed twice with PBS. Following wash the plate was stained with 1% crystal violet in […] at room temperature for 5 minutes. Following incubation, crystal violet from each well was discarded and washed two to three times with PBS and removed any excess dye from each well.
(§2) Health supplements were collected from pharmaceutical laboratory and were randomly screened in one of the lungs cancer cell lines called A549 for their protease inhibitory effects. Cells were cultivated in 6 well plate using standard technique until confluent. Once the plate is ready, culture media from each well were removed and washed two times with PBS. Following wash, 500 μl of supplements at appropriate dilutions were added into well followed by 500 μl of trypsin (0.25%) to each well except the well having cell control (CC). Plate was incubated at 37° C. and checked at every 5 minutes to see the effect of trypsin on cell morphology. Once cells in trypsin control well lift off from the surface, discard fluid from all wells, wash two times with PBS and stained cells by 1% crystal violet (in alcohol) for two-three minutes. Following staining wells were washed 2-3 times with PBS in order to remove excess dye and finally checked the cell morphology using inverted microscope as well as by naked eye (FIG. 7, 8).
A further experiment was conducted using serine proteases (Trypsin and Elastase) against two formulations of health supplements such as Vitamin C and combination Vitamins C (PC Drug Center Ltd, Bangkok, Thailand) with Thiamine (B1-Roche, lot no: 8077395)) and Pyridoxine (B6, Roche, lot no: 8079496). This formulation of three vitamins is designed as tbc and experiment was conducted in six well plate with confluent A549 cells using technique described in [0044].
The end point of trypsin inhibition of each supplement was calculated in terms of μg/ml. The cell morphologies were also observed by under inverted microscope (4×10) and are shown FIG. 12-15.

Elastase = target: T2, Elastase (Sus scrofa, UniProt P00772); assay: Elastase inhibition by health supplements in confluent A549 cells (cell detachment, crystal violet staining, microscopy); assay type: cell-based
T2 construct: purchased SIGMA E017-5 mg
T2 sequence (P00772 27-266): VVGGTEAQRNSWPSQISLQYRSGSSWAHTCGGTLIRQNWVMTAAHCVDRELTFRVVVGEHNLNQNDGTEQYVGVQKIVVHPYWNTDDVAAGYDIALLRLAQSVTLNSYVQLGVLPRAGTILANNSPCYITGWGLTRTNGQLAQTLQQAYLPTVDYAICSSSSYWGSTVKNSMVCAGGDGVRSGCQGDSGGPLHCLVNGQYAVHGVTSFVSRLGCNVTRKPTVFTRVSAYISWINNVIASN
Experimental: as §1
In a solution of the preferred inhibitor of the present invention in which the inhibitor and trypsin are present in a concentration greater 0.355 mM verses 0.524 mM such inhibitor would react >95% of an equivalent molecular amount of trypsin.
as §2, with “Following staining wells were washed 2-3 times with PBS in order to remove excess dye and finally checked the cell morphology using inverted microscope as well as by naked eye (FIG. 7, 8).” left out

[1] = FIG. 12, trypsin at 1.25% concentration, microscopy

- concentration at end point dilution of trypsin inhibition (Trypsin): 1.0%
- concentration at end point of trypsin inhibitory effects (Trypsin): 1.0%
Compound: Cc1ncc(C[n+]2csc(CCO)c2C)c(N)n1 [B1, Thiamine]

- level of inhibition against elastase (Elastase; FIG. 9, A549, six well plate, 0.5% elastase, Ascorbic acid 2.5% alone or tbc (Ascorbic acid 2.5%, Thiamine 0.1%, Pyridoxine 0.15%)): good level of inhibition
- level of inhibition against trypsin (Trypsin; FIG. 9, A549, six well plate, 1.25% trypsin, Ascorbic acid 2.5% alone or tbc (Ascorbic acid 2.5%, Thiamine 0.1%, Pyridoxine 0.15%)): good level of inhibition
Compound: O=C1O[C@H]([C@@H](O)CO)C(O)=C1O [vitamin C, Ascorbic acid]
- inhibition of enzymatic activities of Elastase (E) (Elastase; FIG. 7, A549 cells, compared with cell control (CC) and elastase control (EC)): showed inhibitions of enzymatic activities
- inhibition of enzymatic activities of Trypsin (T) (Trypsin; FIG. 7, A549 cells, compared with cell control (CC) and trypsin control (TC)): showed inhibitions of enzymatic activities

- concentration at end point dilution of trypsin inhibition (Trypsin): 0.5%
- concentration at end point of trypsin inhibitory effects (Trypsin): 0.5%
Compound: Cc1ncc(CO)c(CO)c1O [B6, Pyridoxine]

- concentration at end point dilution of trypsin inhibition (Trypsin): 0.25%
- concentration efficiently neutralizing catalytic activities of trypsin (Trypsin; [1]): 0.25%
- concentration from which capability of neutralization of trypsin starts to be lost (Trypsin; [1]): 0.125%
Compound: O=C1O[C@H]([C@@H](O)CO)C(O)=C1O [AC-1, Ascorbic acid]
